Among the data in patent US9321756B2, “Azole compounds as PIM inhibitors” (priority 2011, dated 2016) are IC50 values, retold here.

Assay type in all cases: biochemical
The target of test [1] is full length recombinant Pim-1 (Homo sapiens (Human), UniProt P11309). Description: Pim enzyme assay (HTRF, phosphorylation of biotinylated-BAD (S112) peptide), Pim-1. The settings on record: Pim-1 enzyme assay; read-out: Pim_1_IC50. Background: TR-FRET usually uses a lanthanide donor and a delayed reading to cut background.
In test [2] the target is full length recombinant Pim-3 (Homo sapiens (Human), UniProt Q86V86). Description: Pim enzyme assay (HTRF, phosphorylation of biotinylated-BAD (S112) peptide), Pim-3. Conditions: Pim-3 enzyme assay; read-out: Pim3 IC50. The text has this:
Pim-3 was purchased from Millipore (UK).
The phosphorylation of biotinylated-BAD (S112) peptide by full length recombinant Pim-1, Pim-2, or Pim-3 protein was detected with streptavidin:Allophycocyanin (APC) conjugate and a europium (Eu) labeled antibody directed against phosphorylated-BAD (S112). […] The fluorescence is directly proportional to the amount of phosphorylated BAD peptide present in the reaction.
A reference compound was included on each assay plate in order to validate that plate; on one plate of every assay run, two additional reference compounds were included.
The final buffer conditions were as follows: 60 mM Hepes, pH 7.0, 0.05% BSA, 2 mM DTT. Incubations were carried out at RT (22° C.) for 2 h for Pim-1, 1 h and 30 min for Pim-3, and 45 min for Pim-2. The reaction was then stopped by the addition of 3 mM EDTA, and fluorescence was measured by an HTRF® Rubystar microplate reader. For each plate, percent of control (POC) values were calculated for each well. Values for the IC50 IP were estimated using a standard 4-parameter logistic model.

Test [3] deals with full length recombinant Pim-2 (Homo sapiens (Human), UniProt Q9P1W9). Description: Pim enzyme assay (HTRF, phosphorylation of biotinylated-BAD (S112) peptide), Pim-2. The settings on record: Pim-2 enzyme assay; read-out: Pim2_IC50.

Structures are written as SMILES.

Sequence of full length recombinant Pim-2 (Q9P1W9 whole entry): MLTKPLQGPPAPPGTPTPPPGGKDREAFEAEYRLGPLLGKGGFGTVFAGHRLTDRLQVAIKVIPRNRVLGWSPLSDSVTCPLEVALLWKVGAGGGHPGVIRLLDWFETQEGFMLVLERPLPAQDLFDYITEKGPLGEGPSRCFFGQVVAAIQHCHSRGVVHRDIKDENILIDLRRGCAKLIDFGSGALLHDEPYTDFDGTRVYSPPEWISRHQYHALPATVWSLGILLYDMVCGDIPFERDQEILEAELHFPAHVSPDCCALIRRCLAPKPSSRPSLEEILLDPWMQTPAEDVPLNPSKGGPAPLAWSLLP
Sequence of full length recombinant Pim-1 (P11309 whole entry): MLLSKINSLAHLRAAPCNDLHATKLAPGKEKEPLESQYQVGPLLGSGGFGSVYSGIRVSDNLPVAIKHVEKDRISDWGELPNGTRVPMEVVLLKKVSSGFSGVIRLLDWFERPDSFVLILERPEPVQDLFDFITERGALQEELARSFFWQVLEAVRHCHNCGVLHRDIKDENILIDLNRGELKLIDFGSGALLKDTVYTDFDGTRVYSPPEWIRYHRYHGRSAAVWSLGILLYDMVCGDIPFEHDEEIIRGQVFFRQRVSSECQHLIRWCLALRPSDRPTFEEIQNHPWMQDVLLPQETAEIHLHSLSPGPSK

With `Nc1nnc(-c2ccc3[nH]cc(-c4cncc(Oc5ccccc5)n4)c3c2)o1` [Example 92, 5-(3-(6-phenoxy-2-pyrazinyl)-1H-indol-5-yl)-1,3,4-oxadiazol-2-amine], the IC50 amounted to 0.0259 µM in test [1], 0.0123 µM in test [2] and 0.0466 µM in test [3].
The matching figures for `Nc1nnc(-c2ccc3[nH]cc(-c4ncccn4)c3c2)o1` [Example 93, 5-(3-(2-pyrimidinyl)-1H-indol-5-yl)-1,3,4-oxadiazol-2-amine]: 0.269 µM, 0.14 µM and 0.111 µM.
For `Nc1nnc(-c2ccc3[nH]cc(-c4nccc(C(F)(F)F)n4)c3c2)o1` [Example 96, 5-(3-(4-(trifluoromethyl)-2-pyrimidinyl)-1H-indol-5-yl)-1,3,4-oxadiazol-2-amine] the same measures were 0.067 µM, 0.012 µM and 0.0319 µM.
Regarding `Nc1nnc(-c2ccc3[nH]cc(-c4cncc(Cl)n4)c3c2)o1` [Example 102, 5-(3-(6-chloro-2-pyrazinyl)-1H-indol-5-yl)-1,3,4-oxadiazol-2-amine], the IC50 came out at 0.157 µM in test [1], 0.0292 µM in test [2] and 0.146 µM in test [3].
Consider `COC[C@@H]1CCCN1c1ccnc(-c2c[nH]c3ccc(-c4nnc(N)o4)cc23)n1` [Example 109, 5-(3-(4-((2S)-2-(methoxymethyl)-1-pyrrolidinyl)-2-pyrimidinyl)-1H-indol-5-yl)-1,3,4-oxadiazol-2-amine], for which the IC50 in test [1] was found to be 0.0322 µM; in test [2] it was 0.013 µM; in test [3], 0.0268 µM.
With `Cc1ccccc1-c1ccnc(-c2c[nH]c3ccc(-c4nnc(N)o4)cc23)n1` [Example 124, 5-(3-(4-(2-methylphenyl)-2-pyrimidinyl)-1H-indol-5-yl)-1,3,4-oxadiazol-2-amine], the IC50 in test [1] worked out at 0.0279 µM; in test [2], 0.0172 µM; in test [3], 0.0334 µM.
In the case of `CC(C)Oc1cccc(-c2c[nH]c3ccc(-c4nnc(N)o4)nc23)c1` [Example 126, 5-(3-(3-(1-methylethoxy)phenyl)-1H-pyrrolo[3,2-b]pyridin-5-yl)-1,3,4-oxadiazol-2-amine], the figures for the IC50 in test [1], in test [2] and in test [3] were 0.272 µM, 0.0848 µM and 0.244 µM, respectively.
On to `Nc1nnc(-c2ccc3[nH]cc(-c4cc(C(=O)Nc5ccccc5)ccc4F)c3c2)s1` [Example 137, 3-(5-(5-amino-1,3,4-thiadiazol-2-yl)-1H-indol-3-yl)-4-fluoro-N-phenylbenzamide], for which the IC50 in test [1] stood at 0.176 µM; in test [2], 0.0903 µM; in test [3], 0.237 µM.
On to `Nc1nnc(-c2ccc3[nH]cc(-c4c(F)cccc4F)c3c2)s1` [Example 138, 5-(3-(2,6-difluorophenyl)-1H-indol-5-yl)-1,3,4-thiadiazol-2-amine], for which the IC50 is 0.199 µM in test [1], 0.0967 µM in test [2] and 0.348 µM in test [3].
For `Fc1ccccc1-c1c[nH]c2ccc(-c3nnc(NCc4ccc5[nH]ccc5c4)s3)cc12` [Example 142, 5-(3-(2-fluorophenyl)-1H-indol-5-yl)-N-(1H-indol-5-ylmethyl)-1,3,4-thiadiazol-2-amine] the same measures were 0.109 µM, 0.0595 µM and 1.48 µM.
Regarding `NC1CCN(c2nnc(-c3ccc4[nH]cc(-c5ccccc5F)c4c3)s2)CC1` [Example 144, 1-(5-(3-(2-fluorophenyl)-1H-indol-5-yl)-1,3,4-thiadiazol-2-yl)-4-piperidinamine], the IC50 amounted to 0.267 µM in test [1], 0.163 µM in test [2] and 1.7 µM in test [3].
As for `CC(=O)Nc1cccc(CNc2nnc(-c3ccc4[nH]cc(-c5ccccc5F)c4c3)s2)c1` [Example 145, N-(3-(((5-(3-(2-fluorophenyl)-1H-indol-5-yl)-1,3,4-thiadiazol-2-yl)amino)methyl)phenyl)acetamide], the IC50 in test [1] came to 0.308 µM; in test [2], 0.308 µM; in test [3], 2.17 µM.
As for `COCC(=O)Nc1cccc(CNc2nnc(-c3ccc4[nH]cc(-c5ccccc5F)c4c3)s2)c1` [Example 146, N-(3-(((5-(3-(2-fluorophenyl)-1H-indol-5-yl)-1,3,4-thiadiazol-2-yl)amino)methyl)phenyl)-2-methoxyacetamide], the IC50 in test [1] is 0.365 µM; in test [2], 0.54 µM; in test [3] it was 2.51 µM.
The matching figures for `Cc1[nH]c2ccc(CNc3nnc(-c4ccc5[nH]cc(-c6ccc(F)cc6F)c5c4)s3)cc2c1C` [Example 147, 5-(3-(2,4-difluorophenyl)-1H-indol-5-yl)-N-((2,3-dimethyl-1H-indol-5-yl)methyl)-1,3,4-thiadiazol-2-amine]: 0.513 µM, 0.634 µM and more than 3 µM.
`CC(=O)Nc1ccc(CNc2nnc(-c3ccc4[nH]cc(-c5ccc(F)cc5F)c4c3)s2)cc1` [Example 148, N-(4-(((5-(3-(2,4-difluorophenyl)-1H-indol-5-yl)-1,3,4-thiadiazol-2-yl)amino)methyl)phenyl)acetamide]: the IC50 was 0.777 µM in test [1], 1.27 µM in test [2] and more than 3 µM in test [3].
On to `Fc1ccccc1-c1c[nH]c2ccc(-c3nnc(NCc4ccccc4)s3)cc12` [Example 149, N-benzyl-5-(3-(2-fluorophenyl)-1H-indol-5-yl)-1,3,4-thiadiazol-2-amine], for which the results for the IC50 in test [1], in test [2] and in test [3] were 1.05 µM, 0.522 µM and more than 3 µM, respectively.
The matching figures for `Nc1nnc(-c2ccc3[nH]cc(-c4cccc(C(F)(F)F)n4)c3c2)s1` [Example 182, 5-(3-(6-(trifluoromethyl)-2-pyridinyl)-1H-indol-5-yl)-1,3,4-thiadiazol-2-amine]: 0.121 µM, 0.0225 µM and 0.135 µM.
As to `N#Cc1cccc(-c2c[nH]c3ccc(-c4nnc(N)s4)cc23)n1` [Example 183, 6-(5-(5-amino-1,3,4-thiadiazol-2-yl)-1H-indol-3-yl)-2-pyridinecarbonitrile], the values for the IC50 in test [1], in test [2] and in test [3] were 0.156 µM, 0.0482 µM and 0.174 µM, respectively.
For `Nc1nnc(-c2ccc3[nH]cc(-c4cccc(-n5ccccc5=O)n4)c3c2)s1` [Example 185, 6′-(5-(5-amino-1,3,4-thiadiazol-2-yl)-1H-indol-3-yl)-2H-1,2′-bipyridin-2-one], the IC50 turned out to be 0.224 µM in test [1], 0.0682 µM in test [2] and 0.244 µM in test [3].
`Nc1cc(-c2c[nH]c3ccc(-c4nnc(N)s4)cc23)ccn1` [Example 186, 4-(5-(5-amino-1,3,4-thiadiazol-2-yl)-1H-indol-3-yl)-2-pyridinamine]: the IC50 in test [1] is 0.26 µM; in test [2], 0.0838 µM; in test [3], 0.27 µM.
On to `Nc1nnc(-c2ccc3[nH]cc(-c4cnc(N5CCCC5)cn4)c3c2)s1` [Example 189, 5-(3-(5-(1-pyrrolidinyl)-2-pyrazinyl)-1H-indol-5-yl)-1,3,4-thiadiazol-2-amine], for which the IC50 was found to be 0.564 µM in test [1], 0.0732 µM in test [2] and 0.69 µM in test [3].
`Nc1cccc(-c2c[nH]c3ccc(-c4nnc(N)s4)cc23)n1` [Example 190, 6-(5-(5-amino-1,3,4-thiadiazol-2-yl)-1H-indol-3-yl)-2-pyridinamine]: the IC50 in test [1] came to 0.705 µM; in test [2], 0.186 µM; in test [3] it was 0.977 µM.
The matching figures for `Nc1nnc(-c2ccc3[nH]cc(-c4cnc(N5CCOCC5)cn4)c3c2)s1` [Example 192, 5-(3-(5-(4-morpholinyl)-2-pyrazinyl)-1H-indol-5-yl)-1,3,4-thiadiazol-2-amine]: 0.908 µM, 0.266 µM and 2.4 µM.
For `CCCCOc1cnc(-c2c[nH]c3ccc(-c4nnc(N)s4)cc23)cn1` [Example 193, 5-(3-(5-butoxy-2-pyrazinyl)-1H-indol-5-yl)-1,3,4-thiadiazol-2-amine] the same measures were 0.931 µM, 0.392 µM and 1.55 µM.
The matching figures for `Nc1nnc(-c2ccc3[nH]cc(-c4cnc(N5CCCC5=O)cn4)c3c2)s1` [Example 194, 1-(5-(5-(5-amino-1,3,4-thiadiazol-2-yl)-1H-indol-3-yl)-2-pyrazinyl)-2-pyrrolidinone]: 0.945 µM, 0.509 µM and 1.04 µM.
Take `Nc1nnc(-c2ccc3[nH]cc(-c4cnc(OC5CCCC5)cn4)c3c2)s1` [Example 195, 5-(3-(5-(cyclopentyloxy)-2-pyrazinyl)-1H-indol-5-yl)-1,3,4-thiadiazol-2-amine]: the IC50 in test [1] was 0.956 µM; in test [2], 0.506 µM; in test [3], 1.34 µM.
The matching figures for `Nc1nnc(-c2ccc3[nH]cc(-c4cccc(O)n4)c3c2)s1` [Example 196, 6-(5-(5-amino-1,3,4-thiadiazol-2-yl)-1H-indol-3-yl)-2-pyridinol]: 2.07 µM, 0.918 µM and more than 3 µM.
Take `Cc1ccn(-c2cnc(-c3c[nH]c4ccc(-c5nnc(N)s5)cc34)cn2)n1` [Example 197, 5-(3-(5-(3-methyl-1H-pyrazol-1-yl)-2-pyrazinyl)-1H-indol-5-yl)-1,3,4-thiadiazol-2-amine]: the IC50 stood at 2.27 µM in test [1], 0.836 µM in test [2] and 2.9 µM in test [3].
